The results in this text go back to paper PMC11336835 (Heliyon, 2024).

Each structure is given as a SMILES string. In brackets after ≈: the same amount, converted by molar mass. Read-outs that look alike come from different tables or passages of the source. *1 amine or outer side, *2 acyl side, *3 side chain or, on linkers, in order; H or OH if unused. Where a SMILES comes first, the peptide text is derived from it. Bridges are numbered along the chain shown (N, C = ends). Roman numbers before positions name the chains, in order. [ ]: non-standard residue; d: D form. Actinocin(9to1) = Cc1c2oc3c(C)ccc(C(=O)[*:1])c3nc-2c(C(=O)[*:2])c(N)c1=O; NMeV = CN[C@H](C(=O)O)C(C)C; Sar = CNCC(=O)O Where only a bound is given, the exact number is not on record here.

Series [1] relates to Mycobacterium bovis var BCG. The series is described as follows: organism not typed. It is filed as cell-based. The settings on record: for IC50: read-out: IC50 against Mycobacterium bovis var BCG.
Series [2] deals with Mycobacterium smegmatis mc2155. In words: Resazurin reduction growth inhibition assay, M. smegmatis. It is filed as cell-based. As to conditions: for IC50: Mycolicibacterium smegmatis, MC2155, growth inhibition, resazurin, means ± SEM of triplicates, read-out: IC50 against Mycobacterium smegmatis.
The subject of the next series is Bacillus subtilis. The series is described as follows: Antimicrobial spectrum assay, Bacillus subtilis. It is filed as cell-based. As to conditions: for IC50: Bacillus subtilis, read-out: IC50 against Bacillus subtilis.
Series [3] deals with Mycobacterium tuberculosis H37Rv. In words: Resazurin reduction growth inhibition assay, M. tuberculosis H37Rv. The settings on record: for IC50 against Mycobacterium tuberculosis H37Rv / IC50: means ± SEM of triplicates; for IC50: Mycobacterium tuberculosis, H37RV, read-out: IC50 against Mycobacterium tuberculosis H37Rv. The class given is cell-based.
For the next series, the system named is Staphylococcus aureus. In words: Antimicrobial spectrum assay, Staphylococcus aureus. As to conditions: for IC50: Staphylococcus aureus, read-out: IC50 against Staphylococcus aureus. It is filed as cell-based.
The target in a further series is T1, Shikimate kinase (MtSK) (Mycobacterium tuberculosis, UniProt P9WPY3).
T1 construct: made in house; host or cells: E. coli
T1 sequence (P9WPY3 whole entry): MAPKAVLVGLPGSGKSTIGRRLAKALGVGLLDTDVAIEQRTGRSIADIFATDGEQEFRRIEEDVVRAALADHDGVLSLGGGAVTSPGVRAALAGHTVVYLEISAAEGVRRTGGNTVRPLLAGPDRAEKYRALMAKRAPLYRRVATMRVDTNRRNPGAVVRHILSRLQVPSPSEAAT
In words: Recombinant MtSK inhibition, ADP coupling assay. It is filed as biochemical, M. tuberculosis. The settings on record: for IC50: read-out: Inhibition Concentration (IC50), MtSK (converted); for Ki: read-out: inhibition constant (Ki), MtSK (converted). How it is done: In this study, we conducted enzymatic assays to assess the inhibition of the pure compound isolated in this experiment. We also assayed control and standard drugs (rifampicin and actinomycin D). At this time, we focused on three essential enzymes in M. tuberculosis: Shikimate kinase (MtSK), phosphopantothenoylcysteine synthetase phosphopantothenoylcysteine decarboxylase (MtCoABC), and 5-enolpyruvylshikimate-3-phosphate synthase (MtEPSPS), based on docking results. All these enzymes were prepared as recombinant proteins expressed in E. coli (details not included in this study or unpublished data). For the MtSK inhibition assessment, we quantified the production of ADP in the reaction using a coupling assay, as previously described. In the case of MtCoABC and MtEPSPS inhibition, we employed a pyrophosphate assay with the BIOMOL® Green reagent (Enzo Life Sciences). All assays were conducted on a 96-well plate format, with each well having a final volume of 50 μL.

The subject of another series is Salmonella enterica. The series is described as follows: Antimicrobial spectrum assay, Salmonella enterica. It is filed as cell-based. As to conditions: ND = no inhibition detected at maximum concentration tested (100 μg/mL).
A short description of the next series: in vitro. As to conditions: human, DLD-1 colorectal adenocarcinoma cells.
A short description of series [4]: Solubility of the purified compound in solvents. It is filed as physicochemical. The settings on record: qualitative.

Experimental for in vitro: The cytotoxicity assay involved the evaluation of cytotoxic effects on human cells using the colorectal adenocarcinoma cell line (DLD-1). The DLD-1 cells were cultured in a 75 cm^2 flask (Violamo) at 37 °C, with Roswell Park Memorial Institute (RPMI 1640) medium supplemented with 10 % FBS, 2.1 mM stable Glutamine, and 2.0 g/L NaHCO3. DLD-1 cells in a semiconfluent state were detached from the flask by incubating them with 5 mL of RPMI 1640 containing 0.25 % trypsin-EDTA to conduct the assay. After detachment, the DLD-1 cells were resuspended in RPMI 1640 supplemented with FBS, L-glutamine, and NaHCO3, and their cell viability was assessed using 0.4 % Trypan blue on a hemocytometer. Approximately 100 μL of the cell suspension, containing 3,000 cells, was added to each well of a 96-well clear-bottom plate. Cells were dispensed into the wells containing 2 μL of compounds dissolved in 50 % DMSO (final compound concentrations: 100, 20, 4, 0.8, and 0.2 μM and final DMSO concentration was 1 % each well). The culture plate was then incubated at 37 °C under 5 % CO2. Following 48 h of cultivation, 10 μL of Cell Counting Kit 8 (Dojindo, Japan) was added to each well, and the plates were further incubated for 2 h to examine cell growth and survival. The absorbance at 450 nm wavelength was measured using a microplate reader. The assay was conducted in triplicate for each dilution.

For `CO[C@H]1/C=C/O[C@@]2(C)Oc3c(C)c(O)c4c(O)c(c(/C=N/N5CCN(C)CC5)c(O)c4c3C2=O)NC(=O)/C(C)=C\C=C\[C@H](C)[C@H](O)[C@@H](C)[C@@H](O)[C@@H](C)[C@H](OC(C)=O)[C@@H]1C` [Rifampicin], the IC50 was under 0.03 µg/mL in [1], 0.48 ± 0.07 µg/mL (≈ 0.583 µM) in series [2], under 0.3 µg/mL in the series on Bacillus subtilis and under 0.3 µg/mL in the series with Staphylococcus aureus. The “IC50 against Mycobacterium tuberculosis H37Rv” value is under 0.01 µg/mL in series [3] (growth inhibition, resazurin) and 0.8 ± 0.12 µg/mL (≈ 0.972 µM) in series [3] (growth inhibition, resazurin, listed as rifampicin).
Turning to `Cc1c2oc3c(C)ccc(C(=O)N[C@@H]4C(=O)N[C@H](C(C)C)C(=O)N5CCC[C@H]5C(=O)N(C)CC(=O)N(C)[C@@H](C(C)C)C(=O)O[C@@H]4C)c3nc-2c(C(=O)N[C@@H]2C(=O)N[C@H](C(C)C)C(=O)N3CCC[C@H]3C(=O)N(C)CC(=O)N(C)[C@@H](C(C)C)C(=O)O[C@@H]2C)c(N)c1=O` [Actinomycin D, actinomycin D] (I: T[dV]P[Sar][NMeV] / II: T[dV]P[Sar][NMeV]; ester I:1-I:C, II:1-II:C; linker I:N-II:N via Actinocin(9to1)), the “IC50 against Mycobacterium bovis var BCG” value in [1] stood at 0.8 ± 0.09 µg/mL (≈ 0.637 µM). Moreover, the IC50 at Shikimate kinase (MtSK) was 71.6 µM; in [3] ([…]) it was 0.8 ± 0.12 µg/mL (≈ 0.637 µM); in the series on Salmonella enterica (Salmonella enterica, read-out: IC50 against Salmonella enterica), 14.7 µg/mL (≈ 11.7 µM). For the same compound, the Ki on Shikimate kinase (MtSK) is 94.9 µM. Besides, in [2], the “IC50 against Mycobacterium smegmatis” value is 0.78 ± 0.21 µg/mL (≈ 0.621 µM). In addition, the “IC50 against Bacillus subtilis” value in the series with Bacillus subtilis was under 0.3 µg/mL. Further, the “IC50 against Staphylococcus aureus” value with Staphylococcus aureus is under 0.3 µg/mL. The “IC50 against Salmonella enterica” value in the series with Salmonella enterica was 14.65 ± 1.22 µg/mL (≈ 11.7 µM).
Take `Cc1c2oc3c(C)ccc(C(=O)N[C@@H]4C(=O)N[C@H](C(C)C)C(=O)N5CCC[C@H]5C(=O)N(C)CC(=O)N(C)[C@@H](C(C)C)C(=O)O[C@@H]4C)c3nc-2c(C(=O)N[C@@H]2C(=O)N[C@H](C(C)C)C(=O)N3CCC[C@H]3C(=O)N(C)CC(=O)N(C)[C@@H](C(C)C)C(=O)O[C@@H]2C)c(N)c1=O` [F5(23), actinomycin D] (I: T[dV]P[Sar][NMeV] / II: T[dV]P[Sar][NMeV]; ester I:1-I:C, II:1-II:C; linker I:N-II:N via Actinocin(9to1)): the “increase in potency against M. bovis compared to actinomycin D” value in series [1] was found to be 10 fold. Besides, the IC50 in series [1] is 0.02 ± 0.01 µg/mL (≈ 0.0159 µM); on Shikimate kinase (MtSK) (recombinant enzyme), 32.8 µM; in series [2], 0.74 ± 0.03 µg/mL (≈ 0.589 µM); in the series with Bacillus subtilis, under 0.3 µg/mL; in series [3] (growth inhibition, resazurin), 0.07 ± 0.009 µg/mL (≈ 0.0558 µM); in the series on Staphylococcus aureus it was under 0.3 µg/mL. Further, on Shikimate kinase (MtSK) (recombinant enzyme), the Ki is 46.2 µM. The compound further showed an IC50 at 48 h in “in vitro” of over 80 µg/mL. The “increase in potency against M. tuberculosis compared to actinomycin D” value in [3] is listed as 10 fold. The “potency against M. tuberculosis compared to rifampicin” value in [3] (greater effect than rifampicin) is about 10 fold. In addition, in series [4], the solubility in solvents result is “soluble in dichloromethane, chloroform, methanol, ethyl acetate and DMSO”. The “IC50 against Salmonella enterica” value with Salmonella enterica is on record as “no inhibitory effect”.
